Measurements taken from patent US20260317304A1, “TEAD INHIBITORS AND METHODS OF USE” (Sporos BioDiscovery, Inc., priority 2022, published 2026).

How the values were obtained:
NCI-H226 cells [1] = assay: Proliferation and cell viability assay, CellTiter-Glo 2.0 (CTG); type: cell-based, human; conditions: 144 hrs
Description: (§1) Cell proliferation of a TEAD dependent NF2-null mesothelioma cell line, NCI-H226 was assayed using two different protocols. Results were confirmed in two different TEAD-non-dependent lung cancer cell lines, H23 and H28, were used as non-responsive controls, as indicated:
a) CellTiter-Glo® 2.0 (Promega #G9243). The effect of the TEAD inhibitors disclosed herein on cell proliferation was determined in TEAD1-genetically dependent cell line NCI-H226 (responder cell line) and TEAD-independent cell lines (NCI-H23, HEK293T), as non-responder, negative control. Cells were seeded in 96-well plates (Thermo Scientific #167008) in growth media (RPMI-1640, Gibco #61870-010) for NCI-H226 and NCI-H23 or DMEM (Gibco #31966-021, HEK293T) with […] Heat Inactivated Fetal Bovine Serum (Gibco 10500-064) at 800 (NCI-H226 and HEK-293T) or 2000 (NCI-H23) cells per well at 37° C., […], humidified incubator; 24 hours later, fresh growth media containing test compound or DMSO vehicle was added and incubated with the cells for 144 hrs. TEAD inhibitor stocks were made at a 1000× fold excess in DMSO, and a dose response test compound dose range of 10,000 to 0.1 nM was used. Each treatment was carried out in triplicate. After 144 hrs of treatment, relative cell viability numbers were determined using the CellTiter-Glo 2.0 assay following the manufacturer's instructions. Test plates and CellTiter-Glo 2.0 reagent were allowed to equilibrate to room temperature. CellTiter-Glo 2.0 reagent was added at 1:1 reagent to media ratio to the 96-well cell plates, plates were placed on a plate shaker for 2 minutes and then incubated at room temperature for a further 10 minutes to allow complete cell lysis to occur. The mix was then transferred to white, 96-well luminometer assay plates (Greiner Bio One #655075). Luminescence was quantified using a CLARIOStar Plus multi-mode plate reader (BMG Labtech) in luminescence detection mode with the recommended settings (ultra-Glo pre-set: emission 545-50 nm with autofocus and enhanced dynamic range on). Relative cell density was expressed as a function of inhibitor concentration, with respect to DMSO-only control wells. Data where plotted using GraphPad Prism and IC50 values for the biological effect were calculated using the EC50 non-linear fit function using a sigmoidal, 4-parameter logistic, least squares fit with no constraints.
(§2) For IC50 and EC50 data “A” indicates a value of less than 0.2 μM; the symbol “B” indicates a value in the range of from 0.2 μM up to 1 μM; and the symbol “C” indicates a value of greater than 1 μM. ND: no data.

NCI-H226 cells [2] = assay: Proliferation and cell viability assay, Cell Titer One; type: cell-based, human; conditions: Cell Titer One assay, 6 days
Description: as §1
b) Cell Titer One (Promega, #G3582). The effect of the TEAD inhibitors disclosed herein on cell proliferation was also determined using the Promega Substrate Cell Titer Aqueous One Solution Reagent. The TEAD inhibitors were evaluated for the effects on cell proliferation responder (H226) and non-responder negative control cancer cell lines (CAMA1, H28), as well as non-transformed normal human cells (HUVEC, NHDF). Dissociated cells were resuspend in media (depending on cell line, either in DMEM, RPMI, or EMEM all with 10% FBS, with gentamicin as an antibiotic). Cells were seeded at 100 μL/well at 750 cells per well in 96-well plates and allowed to settle and attach. After an incubation of 24 hrs (37° C., 5% CO2, humidified incubator), 100 μL of test compound-containing media was added. A dilution series of 2000× concentrated stock of test compounds was prepared in DMSO, for final concentrations from 0.1 to 10,000 nM. After addition of test compound-containing media, cells were incubated for 6 days at 37° C., 5% CO2, humidified incubators). To measure cell density, 20 μL of Promega Substrate Cell Titer 96 Aqueous One Solution Reagent (Promega, #G3582) to each well was added according to the manufacturer's instructions. Plates were incubated at 37° C. for usually 3-8 hrs, to reach in the control cells (without compound) an OD of 1.5 at 490 nm. The OD was measured using Vmax [Molecular Devices] spectrophotometer plate reader. Media only-wells were used as background controls and cell densities normalized to DMSO vehicle control. EC50 were taken as the concentration achieving 50% of maximal growth inhibition.
as §2

[3] = Homo sapiens, NCI-H226, responder cell line

Row | SMILES | EC50 (NCI-H226 cells [1]; [3]) | IC50 (NCI-H226 cells [2]; Homo sapiens, NCI-H226, 144 h) | IC50 (NCI-H226 cells [2]) | EC50 (NCI-H226 cells [1]; responder cell line)
1 | Cn1cnc(-c2cc(CN3CCNC3=O)ccc2Nc2ccc(C(F)(F)F)cc2)c1 [Compound 3, 1-(3-(1-methyl-1H-imidazol-4-yl)-4-((4-(trifluoromethyl)phenyl)amino)benzyl)imidazolidin-2-one] | < 200 nM | < 200 nM |  | 
2 | Cn1cnc(-c2cc(C3(C)NC(=O)NC3=O)ccc2Nc2ccc(C(F)(F)F)cc2)c1 (single isomer, unassigned) [Compound 14, 5-methyl-5-(3-(1-methyl-1H-imidazol-4-yl)-4-((4-(trifluoromethyl)phenyl)amino)phenyl)imidazolidine-2,4-dione] | < 200 nM |  | > 1000 nM | 
3 | CC1(c2ccc(Nc3ccc(C(F)(F)F)cc3)c(-c3ncco3)c2)CCNC1=O (stereo not shown) [Compound 10, 3-methyl-3-(3-(oxazol-2-yl)-4-((4-(trifluoromethyl)phenyl)amino)phenyl) pyrrolidin-2-one] | < 200 nM | < 200 nM |  | 
4 | Cn1cnc(-c2cc(C3(C)NC(=O)NC3=O)ccc2Nc2ccc(C(F)(F)F)cc2)c1 (racemic) [Compound 9, 5-methyl-5-(3-(1-methyl-1H-imidazol-4-yl)-4-((4-(trifluoromethyl)phenyl)amino)phenyl) imidazolidine-2,4-dione] | < 200 nM | < 200 nM |  | 
5 | CC1(c2ccc(Nc3ccc(C(F)(F)F)cc3)c(Br)c2)CCNC1=O (stereo not shown) [Compound 24] | < 200 nM |  |  | 
6 | Cn1nnc(-c2cc(C3(C)CCNC3=O)ccc2Nc2ccc(C(F)(F)F)cc2)n1 (racemic) [Compound 11, 3-methyl-3-(3-(2-methyl-2H-tetrazol-5-yl)-4-((4-(trifluoromethyl)phenyl)amino)phenyl) pyrrolidin-2-one] | < 200 nM | < 200 nM |  | 
7 | CC(=O)c1ccc(Nc2ccc(C(F)(F)F)cc2)c(-c2cn(C)cn2)c1 [Compound 23, 1-(3-(1-methyl-1H-imidazol-4-yl)-4-((4-(trifluoromethyl)phenyl)amino)phenyl) ethan-1-one] | < 200 nM |  |  | 

Results, then the compound that gave them:

Row | EC50 (NCI-H226 cells [1]; [3]) | IC50 (NCI-H226 cells [2]; Homo sapiens, NCI-H226, 144 h) | IC50 (NCI-H226 cells [2]) | EC50 (NCI-H226 cells [1]; responder cell line) | SMILES
8 | < 200 nM |  |  |  | Cn1cnc(-c2cc(C3(C)CCNC3=O)ccc2Nc2cccc(C(F)(F)F)c2)c1 (stereo not shown) [Compound 22, 3-methyl-3-(3-(1-methyl-1H-imidazol-4-yl)-4-((3-(trifluoromethyl)phenyl)amino)phenyl) pyrrolidin-2-one]
9 |  |  | 200 to 1000 nM | < 200 nM | Cn1cnc(-c2cc([C@@]3(C)CCNC3=O)ccc2Nc2ccc(C(F)(F)F)cc2)c1 (single isomer, unassigned) [Compound 6, 3-methyl-3-(3-(1-methyl-1H-imidazol-4-yl)-4-((4-(trifluoromethyl)phenyl)amino)phenyl)pyrrolidin-2-one]
10 | < 200 nM |  |  |  | Cn1cnc(-c2cc([C@@]3(C)C(=O)CNC3=O)ccc2Nc2ccc(C(F)(F)F)cc2)c1 (stereo in doubt) [Compound 17, 3-methyl-3-(3-(1-methyl-1H-imidazol-4-yl)-4-((4-(trifluoromethyl)phenyl)amino)phenyl) pyrrolidine-2,4-dione]
11 |  |  |  | < 200 nM | Cn1cnc(-c2cc([C@@]3(C)C(=O)CNC3=O)ccc2Nc2ccc(C(F)(F)F)cc2)c1 (stereo in doubt) [Compound 18, 3-methyl-3-(3-(1-methyl-1H-imidazol-4-yl)-4-((4-(trifluoromethyl)phenyl)amino)phenyl) pyrrolidine-2,4-dione]
12 | 200 to 1000 nM |  |  |  | Cn1cnc(-c2cc(C3(C)C(=O)NCC3O)ccc2Nc2ccc(C(F)(F)F)cc2)c1 (stereo not shown) [Compound 19, 4-hydroxy-3-methyl-3-(3-(1-methyl-1H-imidazol-4-yl)-4-((4-(trifluoromethyl)phenyl)amino)phenyl) pyrrolidin-2-one]
13 | < 200 nM |  |  |  | Cn1cnc(-c2cc(C3(C)C(=O)CNC3=O)ccc2Nc2ccc(C(F)(F)F)cc2)c1 (racemic) [Compound 16, 3-methyl-3-(3-(1-methyl-1H-imidazol-4-yl)-4-((4-(trifluoromethyl)phenyl)amino)phenyl) pyrrolidine-2,4-dione]
